Results from article PMC9127163, “Lysosomal Targeted Cyclometallic Iridium(Ⅲ) Salicylaldehyde-Coumarin Schiff Base Complexes and Anticancer Application” (Frontiers in Chemistry, 2022).

What was measured:
Assay type in all cases: cell-based, human
BEAS-2B cells [1] = test: Mitochondrial membrane potential (JC-1) flow cytometry, BEAS-2B cells; conditions: positive control CCCP (5 μM), 20 min
Source text: (§1) Mitochondria, the main intracellular energy source, play an important role in the process of apoptosis. Disruption of mitochondrial membrane potential (MMP) is usually identified as the early signals of cell apoptotic. JC-1, a liphile cationic fluorescent dye, is generally used to detect the change of MMP, and it emits strong red fluorescence in the normal mitochondrial matrix and green fluorescence after depolarization activation in apoptotic cells ([Antonicka et al., 2017]). In this study, flow cytometry was utilized to analyze this change after the treatment of Ir2 at a gradient concentration. […] In addition, intracellular reactive oxygen species (ROS) is mainly produced and stored in mitochondria, and the accumulation of intracellular ROS can lead to apoptosis ([Romero-Canelón et al., 2015]). A549 and BEAS-2B cells were stained with DCFH-DA after incubated with Ir2 (1.0 × IC50 and 2.0 × IC50) for 24 h (Figure 8B). The intracellular ROS levels increased in a dose-dependent manner.
(§2) Analysis of the changes of mitochondrial potential in cells after exposure to Ir2 were carried out using the mitochondrial membrane potential assay kit with JC-1 (Beyotime Institute of Biotechnology, Shanghai, China) according to the manufacturer’s instructions. […] The samples were immediately analyzed by a flow cytometer (ACEA NovoCyte, Hangzhou, China). […]

A549 cells [2] = test: Mitochondrial membrane potential (JC-1) flow cytometry, A549 cells; conditions: A549, positive control CCCP (5 μM), 20 min
Source text: as §1, with “manner. […]” for “manner.”
as §2

BEAS-2B cells [3] = test: MTT cytotoxicity assay, BEAS-2B cells; conditions: 24 h
Source text: (§3) MTT assay was utilized to evaluate the anticancer activity of Ir1-Ir6 toward A549 cells (human non-small cell lung cancer cells, one of the deadliest types of cancer in both developing and developed countries) along with cisplatin (metal anticancer drug widely used in clinic) as a control and compared with the cytotoxicity against noncancerous BEAS-2B cells (epithelial cells isolated from pathological sections of normal bronchial epithelium from non-cancerous individuals). […] Additionally, the substitution sites of coumarin (6- and 7-) have little effect on these complexes, however, the peripheral substituents show a significant effect on the structure−activity. […] In addition, the data is even better than the reported traditional cyclometallic Ir^III complexes (usually depicted as [(ppy)2Ir (L^L)], L^L = N^N, C^N, C^O, O^N, P^P, etc., Supplementary Table S3). […]
(§4) After plating 5000 cells per well in 96-well plates, the cells were preincubated in drug-free media at 310 K for 24 h before adding different concentrations of drugs to be tested. […] Afterwards, 100 μL of DMSO was transferred into each well to dissolve the purple formazan, and results were measured using a microplate reader (DNM-9606, Perlong Medical, Beijing, China) at an absorbance of 570 nm. […]

A549 cells [4] = test: MTT cytotoxicity assay, A549 cells; conditions: 24 h
Source text: as §3, §4

Structure (SMILES) | Percentage (%) JC-1 Aggregates (BEAS-2B cells [1]) | Percentage (%) JC-1 Monomers (BEAS-2B cells [1]) | Percentage (%) JC-1 Aggregates (A549 cells [2]) | Percentage (%) JC-1 Monomers (depolarized cells) (A549 cells [2]) | IC50 (BEAS-2B cells [3]) | IC50 (A549 cells [4])
N#CC(C#N)=NNc1cccc(Cl)c1 [Positive Control, carbonyl cyanide 3-chlorophenylhydrazone, reference compound] | 11.60±0.51% | 88.40±0.33% | 22.63±0.55% | 77.37±0.55% | – | –
N.N.[Cl][Pt][Cl] [Cisplatin, reference compound] | – | – | – | – | 38.4 ± 2.8 µM | 21.3 ± 1.7 µM
